Test results published in ChEMBL document CHEMBL5442175, “EUbOPEN Chemogenomics Library - PDSP Secondary Binding” (2024).
Structures can show the parent of a compound that is named as a salt. Each block holds one compound with its values, some of them ahead of it.

How the values were obtained:
[1] = biological target: Sigma non-opioid intracellular receptor 1 (Homo sapiens, UniProt Q99720); experiment: (§1) PDSP Secondary Binding target: SIGMAR1 - Compounds are tested at 10 uM concentration, plate are incubated at room temperature in the dark for 90 minutes. Reaction are stopped by vacuum filtration onto 0.3% polyethyleneimine soaked filter mats using Filtermate harvester. Scintillation cocktail is then melted onto microwave-dried filters on a hot plate and the radio activity is counted in Microbia counter.
Sequence of Sigma non-opioid intracellular receptor 1 (Q99720 whole entry): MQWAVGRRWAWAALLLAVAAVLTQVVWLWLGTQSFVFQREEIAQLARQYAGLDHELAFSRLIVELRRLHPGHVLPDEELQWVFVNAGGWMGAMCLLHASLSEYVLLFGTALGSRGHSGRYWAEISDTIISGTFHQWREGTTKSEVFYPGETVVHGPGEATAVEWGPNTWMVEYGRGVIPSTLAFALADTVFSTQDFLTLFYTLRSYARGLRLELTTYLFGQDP

D(1A) dopamine receptor = D(1A) dopamine receptor (Homo sapiens, UniProt P21728); experiment: as §1, with “DRD1” for “SIGMAR1”
Sequence of D(1A) dopamine receptor (P21728 whole entry): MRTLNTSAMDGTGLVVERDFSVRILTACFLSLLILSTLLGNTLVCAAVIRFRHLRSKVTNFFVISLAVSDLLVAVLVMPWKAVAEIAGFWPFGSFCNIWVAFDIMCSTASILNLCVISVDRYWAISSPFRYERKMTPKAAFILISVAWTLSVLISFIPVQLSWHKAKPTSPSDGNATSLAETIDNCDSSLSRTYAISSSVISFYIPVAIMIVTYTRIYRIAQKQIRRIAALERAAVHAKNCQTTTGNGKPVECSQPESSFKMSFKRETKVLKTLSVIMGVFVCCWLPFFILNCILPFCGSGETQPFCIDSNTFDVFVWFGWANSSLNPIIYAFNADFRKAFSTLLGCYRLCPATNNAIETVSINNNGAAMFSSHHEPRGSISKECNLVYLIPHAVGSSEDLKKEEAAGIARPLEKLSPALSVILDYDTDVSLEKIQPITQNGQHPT

[2] = biological target: 5-hydroxytryptamine receptor 2B (Homo sapiens, UniProt P41595); experiment: as §1, with “HTR2B” for “SIGMAR1”
Sequence of 5-hydroxytryptamine receptor 2B (P41595 whole entry): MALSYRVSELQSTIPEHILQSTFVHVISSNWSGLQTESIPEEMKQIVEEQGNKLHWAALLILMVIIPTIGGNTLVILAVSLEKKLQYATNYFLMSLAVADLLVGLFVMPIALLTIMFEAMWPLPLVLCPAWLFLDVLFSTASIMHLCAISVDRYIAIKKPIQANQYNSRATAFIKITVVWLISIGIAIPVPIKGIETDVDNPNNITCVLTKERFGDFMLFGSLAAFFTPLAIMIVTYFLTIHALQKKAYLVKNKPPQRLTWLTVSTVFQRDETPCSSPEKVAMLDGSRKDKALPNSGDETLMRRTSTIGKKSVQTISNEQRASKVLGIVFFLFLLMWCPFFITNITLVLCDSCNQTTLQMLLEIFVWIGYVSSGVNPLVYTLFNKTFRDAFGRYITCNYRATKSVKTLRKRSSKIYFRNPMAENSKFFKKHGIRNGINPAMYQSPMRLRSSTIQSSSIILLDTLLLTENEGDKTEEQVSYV

[3] = biological target: 5-hydroxytryptamine receptor 2A (Homo sapiens, UniProt P28223); experiment: as §1, with “HTR2A” for “SIGMAR1”
Sequence of 5-hydroxytryptamine receptor 2A (P28223 whole entry): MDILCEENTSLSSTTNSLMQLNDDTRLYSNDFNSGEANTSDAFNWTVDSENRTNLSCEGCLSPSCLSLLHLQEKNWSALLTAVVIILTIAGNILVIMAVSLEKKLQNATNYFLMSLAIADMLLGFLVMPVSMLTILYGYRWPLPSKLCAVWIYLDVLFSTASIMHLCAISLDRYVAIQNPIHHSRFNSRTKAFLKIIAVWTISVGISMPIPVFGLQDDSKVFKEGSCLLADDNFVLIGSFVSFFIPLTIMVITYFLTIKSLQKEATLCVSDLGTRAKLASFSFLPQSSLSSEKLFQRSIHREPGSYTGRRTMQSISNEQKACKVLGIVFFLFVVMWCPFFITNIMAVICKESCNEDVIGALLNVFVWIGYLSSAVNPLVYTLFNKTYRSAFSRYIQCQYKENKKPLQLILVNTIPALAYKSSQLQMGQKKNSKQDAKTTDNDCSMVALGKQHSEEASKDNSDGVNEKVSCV

D(3) dopamine receptor = D(3) dopamine receptor (Homo sapiens, UniProt P35462); experiment: as §1, with “DRD3” for “SIGMAR1”
Sequence of D(3) dopamine receptor (P35462 whole entry): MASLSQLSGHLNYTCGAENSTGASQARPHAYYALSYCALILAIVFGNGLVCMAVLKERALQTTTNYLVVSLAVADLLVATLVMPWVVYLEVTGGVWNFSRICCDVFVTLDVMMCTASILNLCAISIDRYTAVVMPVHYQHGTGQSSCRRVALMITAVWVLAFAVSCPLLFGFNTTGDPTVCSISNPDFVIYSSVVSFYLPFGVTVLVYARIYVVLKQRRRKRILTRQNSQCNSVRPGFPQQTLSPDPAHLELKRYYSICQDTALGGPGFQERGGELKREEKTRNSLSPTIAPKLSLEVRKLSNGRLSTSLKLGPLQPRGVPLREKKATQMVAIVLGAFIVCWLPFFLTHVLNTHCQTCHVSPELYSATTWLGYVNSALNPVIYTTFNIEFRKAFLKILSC

[4] = biological target: Beta-2 adrenergic receptor (Homo sapiens, UniProt P07550); experiment: as §1, with “ADRB2” for “SIGMAR1”
Sequence of Beta-2 adrenergic receptor (P07550 whole entry): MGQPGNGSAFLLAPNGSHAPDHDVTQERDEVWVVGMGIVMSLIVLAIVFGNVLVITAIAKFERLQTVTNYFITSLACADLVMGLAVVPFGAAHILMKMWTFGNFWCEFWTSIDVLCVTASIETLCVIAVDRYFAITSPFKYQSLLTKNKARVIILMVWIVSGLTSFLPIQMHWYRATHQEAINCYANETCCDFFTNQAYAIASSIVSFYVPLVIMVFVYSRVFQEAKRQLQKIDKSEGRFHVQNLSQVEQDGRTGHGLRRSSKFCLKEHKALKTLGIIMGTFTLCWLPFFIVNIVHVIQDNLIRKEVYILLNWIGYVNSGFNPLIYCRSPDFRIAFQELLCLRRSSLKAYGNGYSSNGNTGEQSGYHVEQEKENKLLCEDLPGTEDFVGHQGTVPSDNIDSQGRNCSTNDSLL

[5] = biological target: T1, Muscarinic acetylcholine receptor M5 (Homo sapiens, UniProt P08912); experiment: as §1, with “CHRM5” for “SIGMAR1”
T1 sequence (P08912 whole entry): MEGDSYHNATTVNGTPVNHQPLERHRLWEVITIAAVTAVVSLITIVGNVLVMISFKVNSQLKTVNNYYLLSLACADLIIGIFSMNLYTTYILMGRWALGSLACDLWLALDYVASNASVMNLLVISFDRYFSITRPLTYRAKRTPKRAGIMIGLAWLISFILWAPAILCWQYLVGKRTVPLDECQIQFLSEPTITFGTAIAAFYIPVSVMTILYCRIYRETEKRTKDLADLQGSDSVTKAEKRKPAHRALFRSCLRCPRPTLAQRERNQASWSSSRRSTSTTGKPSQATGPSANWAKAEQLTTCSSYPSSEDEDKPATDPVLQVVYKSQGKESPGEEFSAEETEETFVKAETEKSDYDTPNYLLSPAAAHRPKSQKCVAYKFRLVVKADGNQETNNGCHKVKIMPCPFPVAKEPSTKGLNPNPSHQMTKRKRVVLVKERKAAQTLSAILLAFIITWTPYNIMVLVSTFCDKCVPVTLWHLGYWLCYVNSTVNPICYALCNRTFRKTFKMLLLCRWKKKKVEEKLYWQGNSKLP

D(1B) dopamine receptor = D(1B) dopamine receptor (Homo sapiens, UniProt P21918); experiment: as §1, with “DRD5” for “SIGMAR1”
Sequence of D(1B) dopamine receptor (P21918 whole entry): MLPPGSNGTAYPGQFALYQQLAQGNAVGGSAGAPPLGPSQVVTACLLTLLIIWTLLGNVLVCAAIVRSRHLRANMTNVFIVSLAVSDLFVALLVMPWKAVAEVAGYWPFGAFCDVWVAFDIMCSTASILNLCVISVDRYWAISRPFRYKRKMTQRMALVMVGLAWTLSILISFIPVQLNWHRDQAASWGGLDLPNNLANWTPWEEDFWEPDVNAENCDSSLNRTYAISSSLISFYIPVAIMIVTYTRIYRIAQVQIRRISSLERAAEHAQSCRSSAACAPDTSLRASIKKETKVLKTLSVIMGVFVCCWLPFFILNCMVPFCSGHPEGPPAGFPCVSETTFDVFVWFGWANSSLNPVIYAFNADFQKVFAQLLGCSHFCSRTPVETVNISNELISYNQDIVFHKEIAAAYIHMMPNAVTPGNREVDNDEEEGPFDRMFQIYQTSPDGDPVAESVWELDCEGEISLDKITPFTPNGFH

[6] = biological target: 5-hydroxytryptamine receptor 1B (Homo sapiens, UniProt P28222); experiment: as §1, with “HTR1B” for “SIGMAR1”
[7] = biological target: 5-hydroxytryptamine receptor 7 (Homo sapiens, UniProt P34969); experiment: as §1, with “HTR7” for “SIGMAR1”
[8] = biological target: Sigma intracellular receptor 2 (Homo sapiens, UniProt Q5BJF2); experiment: as §1, with “TMEM97” for “SIGMAR1”
Sequence of Sigma intracellular receptor 2 (Q5BJF2 whole entry): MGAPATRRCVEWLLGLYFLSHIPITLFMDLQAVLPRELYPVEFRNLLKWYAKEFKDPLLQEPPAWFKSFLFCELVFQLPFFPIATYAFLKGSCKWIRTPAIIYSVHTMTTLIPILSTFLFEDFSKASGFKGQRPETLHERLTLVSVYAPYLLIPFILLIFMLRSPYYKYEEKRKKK

[9] = biological target: T2, Alpha-2A adrenergic receptor (Homo sapiens, UniProt P08913); experiment: as §1, with “ADRA2A” for “SIGMAR1”
T2 sequence (P08913 whole entry): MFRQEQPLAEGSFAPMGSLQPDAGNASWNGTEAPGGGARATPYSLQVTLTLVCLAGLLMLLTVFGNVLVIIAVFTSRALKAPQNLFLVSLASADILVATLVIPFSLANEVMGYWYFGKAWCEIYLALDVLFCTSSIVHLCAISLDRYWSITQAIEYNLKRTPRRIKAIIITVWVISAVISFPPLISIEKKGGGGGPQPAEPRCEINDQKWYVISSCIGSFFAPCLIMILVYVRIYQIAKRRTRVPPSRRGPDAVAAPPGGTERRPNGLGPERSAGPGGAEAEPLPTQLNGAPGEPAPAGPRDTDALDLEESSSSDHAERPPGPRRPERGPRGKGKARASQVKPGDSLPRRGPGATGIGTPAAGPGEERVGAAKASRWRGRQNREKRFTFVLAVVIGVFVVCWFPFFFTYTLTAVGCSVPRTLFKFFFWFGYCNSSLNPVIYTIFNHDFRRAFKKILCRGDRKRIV

[10] = biological target: 5-hydroxytryptamine receptor 6 (Homo sapiens, UniProt P50406); experiment: as §1, with “HTR6” for “SIGMAR1”
Sequence of 5-hydroxytryptamine receptor 6 (P50406 whole entry): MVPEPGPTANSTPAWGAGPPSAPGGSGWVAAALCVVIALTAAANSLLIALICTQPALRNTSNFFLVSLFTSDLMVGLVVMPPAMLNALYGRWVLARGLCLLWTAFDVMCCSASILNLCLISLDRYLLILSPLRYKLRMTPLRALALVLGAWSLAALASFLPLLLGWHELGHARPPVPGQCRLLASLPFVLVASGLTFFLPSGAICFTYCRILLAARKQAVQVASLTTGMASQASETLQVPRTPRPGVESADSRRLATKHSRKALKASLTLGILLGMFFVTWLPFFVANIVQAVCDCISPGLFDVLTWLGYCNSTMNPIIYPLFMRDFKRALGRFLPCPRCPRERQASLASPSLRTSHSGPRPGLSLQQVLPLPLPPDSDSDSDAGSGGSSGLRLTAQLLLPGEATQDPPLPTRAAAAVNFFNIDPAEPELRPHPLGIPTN

[11] = biological target: T3, Muscarinic acetylcholine receptor M2 (Homo sapiens, UniProt P08172); experiment: as §1, with “CHRM2” for “SIGMAR1”
T3 sequence (P08172 whole entry): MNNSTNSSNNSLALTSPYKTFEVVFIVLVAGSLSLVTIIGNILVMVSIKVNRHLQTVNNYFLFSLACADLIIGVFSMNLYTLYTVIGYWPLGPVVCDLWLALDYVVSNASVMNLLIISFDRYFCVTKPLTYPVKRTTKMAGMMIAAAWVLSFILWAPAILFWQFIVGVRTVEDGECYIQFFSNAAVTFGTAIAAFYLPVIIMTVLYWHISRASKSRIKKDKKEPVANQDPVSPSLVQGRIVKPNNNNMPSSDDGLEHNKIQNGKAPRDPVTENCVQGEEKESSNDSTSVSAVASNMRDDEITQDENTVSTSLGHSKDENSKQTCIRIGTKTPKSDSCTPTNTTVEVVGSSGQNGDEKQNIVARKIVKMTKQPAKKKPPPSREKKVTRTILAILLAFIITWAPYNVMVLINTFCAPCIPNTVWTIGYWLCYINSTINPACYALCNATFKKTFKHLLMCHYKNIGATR

[12] = biological target: T4, Muscarinic acetylcholine receptor M4 (Homo sapiens, UniProt P08173); experiment: as §1, with “CHRM4” for “SIGMAR1”
T4 sequence (P08173 whole entry): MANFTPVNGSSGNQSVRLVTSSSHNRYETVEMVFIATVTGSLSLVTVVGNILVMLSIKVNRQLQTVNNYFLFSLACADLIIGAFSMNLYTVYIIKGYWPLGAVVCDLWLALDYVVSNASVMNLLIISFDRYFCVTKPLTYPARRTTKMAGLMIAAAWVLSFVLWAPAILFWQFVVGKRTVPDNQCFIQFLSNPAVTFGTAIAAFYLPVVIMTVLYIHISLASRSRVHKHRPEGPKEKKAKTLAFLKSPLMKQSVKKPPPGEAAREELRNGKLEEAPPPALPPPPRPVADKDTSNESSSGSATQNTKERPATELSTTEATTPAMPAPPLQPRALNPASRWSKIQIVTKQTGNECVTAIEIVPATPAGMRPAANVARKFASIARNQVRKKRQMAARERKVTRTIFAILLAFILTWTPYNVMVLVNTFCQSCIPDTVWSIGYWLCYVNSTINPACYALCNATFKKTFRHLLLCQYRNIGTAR

D(2) dopamine receptor = D(2) dopamine receptor (Homo sapiens, UniProt P14416); experiment: as §1, with “DRD2” for “SIGMAR1”
Sequence of D(2) dopamine receptor (P14416 whole entry): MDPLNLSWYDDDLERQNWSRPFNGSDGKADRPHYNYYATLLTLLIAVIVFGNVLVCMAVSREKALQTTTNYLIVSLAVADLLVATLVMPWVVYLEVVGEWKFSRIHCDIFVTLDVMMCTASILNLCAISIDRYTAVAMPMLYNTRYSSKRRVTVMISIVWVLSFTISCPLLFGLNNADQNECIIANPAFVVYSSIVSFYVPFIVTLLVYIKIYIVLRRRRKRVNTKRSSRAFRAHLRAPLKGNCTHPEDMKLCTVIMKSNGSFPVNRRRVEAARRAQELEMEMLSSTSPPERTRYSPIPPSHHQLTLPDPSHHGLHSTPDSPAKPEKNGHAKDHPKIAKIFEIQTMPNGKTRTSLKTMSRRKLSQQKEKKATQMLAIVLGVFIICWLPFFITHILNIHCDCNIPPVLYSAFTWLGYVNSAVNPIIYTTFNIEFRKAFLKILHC

[13] = biological target: T5, 5-hydroxytryptamine receptor 3A (Homo sapiens, UniProt P46098); experiment: as §1, with “HTR3A” for “SIGMAR1”
T5 sequence (P46098 whole entry): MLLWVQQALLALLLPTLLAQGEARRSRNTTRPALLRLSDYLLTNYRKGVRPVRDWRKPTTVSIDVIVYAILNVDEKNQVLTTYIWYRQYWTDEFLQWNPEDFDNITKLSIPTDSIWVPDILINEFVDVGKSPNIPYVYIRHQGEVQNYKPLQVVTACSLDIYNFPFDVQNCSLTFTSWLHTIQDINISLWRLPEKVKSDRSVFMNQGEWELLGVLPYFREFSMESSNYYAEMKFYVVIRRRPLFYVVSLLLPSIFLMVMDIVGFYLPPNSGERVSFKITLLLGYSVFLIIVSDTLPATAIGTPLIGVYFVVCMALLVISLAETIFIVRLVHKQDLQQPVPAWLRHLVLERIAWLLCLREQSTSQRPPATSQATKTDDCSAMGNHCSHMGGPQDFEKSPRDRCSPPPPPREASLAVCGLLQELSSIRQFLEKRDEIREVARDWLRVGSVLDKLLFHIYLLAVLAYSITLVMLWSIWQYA

[14] = biological target: Kappa-type opioid receptor (Homo sapiens, UniProt P41145); experiment: as §1, with “OPRK1” for “SIGMAR1”
Sequence of Kappa-type opioid receptor (P41145 whole entry): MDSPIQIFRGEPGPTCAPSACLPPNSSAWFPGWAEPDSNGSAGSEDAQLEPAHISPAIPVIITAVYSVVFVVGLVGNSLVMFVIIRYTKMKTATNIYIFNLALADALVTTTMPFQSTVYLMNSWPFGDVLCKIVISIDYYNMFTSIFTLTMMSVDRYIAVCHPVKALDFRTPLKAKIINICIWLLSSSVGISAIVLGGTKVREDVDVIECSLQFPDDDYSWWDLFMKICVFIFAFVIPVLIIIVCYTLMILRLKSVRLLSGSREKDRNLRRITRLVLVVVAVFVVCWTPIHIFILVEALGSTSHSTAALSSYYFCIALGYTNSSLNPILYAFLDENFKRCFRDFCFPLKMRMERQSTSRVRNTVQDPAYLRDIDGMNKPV

[15] = biological target: Muscarinic acetylcholine receptor M3 (Homo sapiens, UniProt P20309); experiment: as §1, with “CHRM3” for “SIGMAR1”
Sequence of Muscarinic acetylcholine receptor M3 (P20309 whole entry): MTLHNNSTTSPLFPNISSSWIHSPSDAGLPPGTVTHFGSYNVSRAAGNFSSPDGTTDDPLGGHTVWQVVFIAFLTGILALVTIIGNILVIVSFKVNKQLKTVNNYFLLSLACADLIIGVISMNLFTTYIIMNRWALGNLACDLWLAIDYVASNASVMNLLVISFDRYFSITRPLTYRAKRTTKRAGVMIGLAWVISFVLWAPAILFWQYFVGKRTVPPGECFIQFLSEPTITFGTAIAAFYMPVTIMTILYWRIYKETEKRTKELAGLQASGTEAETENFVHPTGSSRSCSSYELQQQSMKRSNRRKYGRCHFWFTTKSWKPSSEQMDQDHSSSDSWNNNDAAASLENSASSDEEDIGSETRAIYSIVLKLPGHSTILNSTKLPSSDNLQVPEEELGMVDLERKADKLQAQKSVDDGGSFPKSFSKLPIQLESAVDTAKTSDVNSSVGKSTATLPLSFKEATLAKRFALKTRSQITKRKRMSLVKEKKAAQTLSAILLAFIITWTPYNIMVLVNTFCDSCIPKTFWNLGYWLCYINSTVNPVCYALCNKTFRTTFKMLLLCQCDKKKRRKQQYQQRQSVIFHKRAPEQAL

Translocator protein = Translocator protein (Homo sapiens, UniProt P30536); experiment: as §1, with “TSPO” for “SIGMAR1”
[16] = biological target: T6, Muscarinic acetylcholine receptor M1 (Homo sapiens, UniProt P11229); experiment: as §1, with “CHRM1” for “SIGMAR1”
T6 sequence (P11229 whole entry): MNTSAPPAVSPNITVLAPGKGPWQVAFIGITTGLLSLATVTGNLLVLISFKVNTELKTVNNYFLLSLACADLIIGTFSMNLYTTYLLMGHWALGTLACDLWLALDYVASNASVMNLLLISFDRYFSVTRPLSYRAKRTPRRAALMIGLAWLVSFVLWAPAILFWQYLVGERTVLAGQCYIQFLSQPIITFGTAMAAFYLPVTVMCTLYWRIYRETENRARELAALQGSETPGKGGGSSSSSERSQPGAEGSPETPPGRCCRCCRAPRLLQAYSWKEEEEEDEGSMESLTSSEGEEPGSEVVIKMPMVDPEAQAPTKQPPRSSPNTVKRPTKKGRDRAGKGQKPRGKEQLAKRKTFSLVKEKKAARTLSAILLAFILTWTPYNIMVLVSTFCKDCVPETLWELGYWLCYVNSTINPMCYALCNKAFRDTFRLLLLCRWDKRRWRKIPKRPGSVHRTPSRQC

SMILES: CC(C)(C)NC[C@H](O)COc1nsnc1N1CCOCC1 [TIMOLOL]
Ki [1]: 0.391 µM
Ki (D(1A) dopamine receptor): 5.28 µM

SMILES: Cc1cccc(NC(=O)N[C@@H]2N=C(c3ccccc3)c3ccccc3N(C)C2=O)c1 [L-365260]
Ki [2]: 6.21 µM
Ki (D(1A) dopamine receptor): 3.02 µM
Ki [3]: 2.14 µM

SMILES: O=C(O)C1CN(Cc2ccc(-c3nc4cc(Cc5ccccc5F)ccc4s3)c(F)c2)C1
Ki (D(3) dopamine receptor): 1.42 µM
Ki [4]: > 10 µM

SMILES: CN1CCC(=C2c3ccccc3CC(=O)c3sccc32)CC1 [KETOTIFEN FUMARATE]
Ki [5]: 0.0985 µM
Ki (D(1B) dopamine receptor): 2.66 µM
Ki [6]: 1.75 µM
Ki [7]: 0.407 µM
Ki [8]: 0.366 µM
Ki [9]: 1.08 µM
Ki (D(1A) dopamine receptor): 0.299 µM
Ki (D(3) dopamine receptor): 0.717 µM
Ki [10]: 0.825 µM
Ki [11]: 0.244 µM
Ki [12]: 0.917 µM
Ki (D(2) dopamine receptor): 1.73 µM
Ki [13]: 0.339 µM

SMILES: Cc1cc(C(=O)N2Cc3cnn(C)c3Nc3ccccc32)ccc1CNC(=O)N1CCC[C@H]1C(=S)N1CCCN(C)CC1
Ki [5]: 0.467 µM
Ki [14]: 2.05 µM
Ki (D(3) dopamine receptor): 0.912 µM
Ki [11]: 3.44 µM
Ki [15]: 0.707 µM
Ki [12]: 0.249 µM

SMILES: Cc1nc(C(=O)N2CCC[C@H]2Cc2nnc(-c3ccccc3)o2)c(-c2ccccc2F)s1
Ki [14]: 0.704 µM
Ki [2]: 3.05 µM
Ki (Translocator protein): 0.789 µM
Ki [11]: > 10 µM

SMILES: CC[C@@H]1CN2C(=O)N(C)c3nc(-c4ccccc4)[nH]c3C2=N1
Ki [1]: 0.668 µM
Ki [3]: 9.75 µM
Ki [4]: > 10 µM

The next lines start with the values.

Ki [1]: 1.1 µM
Ki [11]: 6.75 µM
SMILES: CC(C)NC(=O)c1ccc(C#Cc2ccncc2)cn1

Ki [1]: 5.38 µM
Ki [2]: 1.7 µM
Ki [10]: > 10 µM
Ki [11]: > 10 µM
Ki (D(2) dopamine receptor): 9.77 µM
SMILES: Cc1cc(NC(=O)Nc2ccc(N(C)C)cc2)c2cc(F)cc(F)c2n1

Ki (D(3) dopamine receptor): 2.81 µM
Ki [11]: 9.07 µM
SMILES: CCOC(=O)c1cc(C#N)c(N2CCC(C(=O)NS(=O)(=O)Cc3ccccc3)CC2)nc1C

Ki [5]: 0.944 µM
Ki (D(1B) dopamine receptor): 1.85 µM
Ki [8]: 1.31 µM
Ki (D(1A) dopamine receptor): 0.74 µM
Ki [16]: 0.258 µM
Ki [15]: 0.152 µM
Ki [12]: 0.0136 µM
SMILES: CCN(CC)CCCCC1CCN(CC(=O)N2c3ccccc3C(=O)Nc3cccnc32)CC1
